Data as given in article PMC12865225 (Clinical and Translational Science, 2026).
Marks after values point to notes of the source that are not given here.

Assays:
[1] = test system: T1, MRP2; experiment: Efflux transport assay in MRP2 HEK293 membrane vesicles; assay type: biochemical, human; conditions: 5 and 50 µM, 10 min
T1 construct: made in house; host or cells: membrane vesicles from HEK293 cells expressing the transporter

[2] = test system: T2, OAT1; experiment: OAT1 inhibition, fluorescein uptake into HEK293 cells; assay type: cell-based; conditions: human, HEK293 cells transiently expressing OAT1, pH 7.4, probe fluorescein 5 µM; 200 μM inhibitor, 5 μM fluorescein; read-out: inhibition of fluorescein transport into OAT1-expressing cells
T2 construct: expressed in transfected cells; host or cells: HEK293 (recombinant baculovirus-mediated transduction)
Procedure: The human transporters OATP1B1, OATP1B3, OATP2B1, and OAT1‐OAT4 and a negative control protein (enhanced yellow fluorescent protein, eYFP) were transiently expressed in human embryonic kidney 293 (HEK293) cells by recombinant baculovirus‐mediated transduction. Baculoviruses carrying human genes for the transporters were prepared as reported previously. HEK293 cells were cultured in DMEM containing 10% fetal bovine serum at 37°C and 5% CO2 and passaged two to three times per week. For the transport studies, 0.05 × 10^6 cells for 48‐well plates (OATPs) or 0.06 × 10^6 cells for 24‐well plates (OATs) were seeded onto cell‐culture treated well plates coated with poly‐D‐lysine. […]
In the OATP inhibition assays, inhibitors in warm TP‐buffer were directly applied to cells after media removal, followed by a 30‐min preincubation step in the presence of inhibitors. […] OAT1 and OAT3 cells were lysed with 200 μL of 1 M sodium hydroxide for 10 min, and 150 μL of these samples were transferred to a black well plate for fluorescein quantification. […]
(§1) For the inhibition data analysis, the average of measured concentrations in the control cells was subtracted from the average of measured concentrations in transporter‐expressing cells for each inhibitor concentration and then normalized to the vehicle sample that represents 100% transport activity. […]

[3] = target: T3, BCRP (Homo sapiens, UniProt Q9UNQ0); experiment: BCRP inhibition, rosuvastatin transport in HEK293 membrane vesicles; assay type: biochemical; conditions: R = I gut/IC50, FDA cut-off ≥ 10
T3 construct: made in house; host or cells: membrane vesicles from HEK293 cells expressing the transporter
T3 sequence (Q9UNQ0 1-655): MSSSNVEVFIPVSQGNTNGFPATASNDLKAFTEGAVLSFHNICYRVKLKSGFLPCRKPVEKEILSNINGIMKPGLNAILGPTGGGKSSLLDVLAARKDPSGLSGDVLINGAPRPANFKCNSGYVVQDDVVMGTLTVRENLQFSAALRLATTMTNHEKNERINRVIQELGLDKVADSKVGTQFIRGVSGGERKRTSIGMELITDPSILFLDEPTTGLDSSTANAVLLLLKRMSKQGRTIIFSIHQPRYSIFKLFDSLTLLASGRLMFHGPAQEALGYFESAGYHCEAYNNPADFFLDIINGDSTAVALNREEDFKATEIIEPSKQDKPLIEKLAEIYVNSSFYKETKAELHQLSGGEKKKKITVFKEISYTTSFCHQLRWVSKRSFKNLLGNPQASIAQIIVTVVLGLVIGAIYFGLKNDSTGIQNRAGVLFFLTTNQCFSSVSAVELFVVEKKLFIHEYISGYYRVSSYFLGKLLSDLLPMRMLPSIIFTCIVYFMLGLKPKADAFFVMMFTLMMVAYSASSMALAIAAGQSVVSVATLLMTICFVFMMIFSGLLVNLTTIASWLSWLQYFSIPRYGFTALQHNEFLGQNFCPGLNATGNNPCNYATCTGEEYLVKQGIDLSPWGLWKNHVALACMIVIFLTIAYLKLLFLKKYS
Procedure: Membrane vesicles, 5 μL (7.5 μg of total protein), prepared as previously reported, were aliquoted to wells of a conical‐shaped 96‐well plate. The plate was incubated for 10 min at +37°C before the initiation of transport by adding 25 μL of TS‐buffer (10 mM Tris, 250 mM sucrose, pH adjusted to 7.4 with HEPES) containing magnesium chloride (10 mM final in the reaction), adenosine triphosphate (ATP) or adenosine monophosphate (AMP), 4 mM final in the reaction, and the transporter substrate and inhibitor. Each experiment included triplicate samples for both ATP and AMP samples. The concentrations of rosuvastatin and N‐methyl‐quinidine were 1 μM in the BCRP and P‐gp vesicle inhibition assays, respectively. The transport reaction times were 1 and 2 min for BCRP and P‐gp, respectively. […] The transport reactions were quenched by adding 200 μL of cold TS‐buffer to each well and transferring the samples to a 96‐multiwell 1.0 μm glass fiber filter plate (Merck Millipore, Darmstadt, Germany) kept under vacuum. […]
as §1

| SMILES | transport by MRP2 [1] | inhibition at 5 min, 200 μM [2] [%] | Calculated R-value BCRP [3] |
| --- | --- | --- | --- |
| Cc1onc(-c2c(F)cccc2Cl)c1C(=O)N[C@@H]1C(=O)N2[C@@H]1SC(C)(C)[C@@H]2C(=O)O [Flucloxacillin] | did not transport | < 50 | 23 ^b |
| Cc1onc(-c2c(Cl)cccc2Cl)c1C(=O)N[C@@H]1C(=O)N2[C@@H]1SC(C)(C)[C@@H]2C(=O)O [Dicloxacillin] | did not transport | < 50 | 51 ^b |
